# Key:
# Type in all cases: in vivo
# [1] = tested on: barnyardgrass (Echinochloa crus-galli); test: Test A pre-/postemergence plant response
# How it was run: (§1)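 Ratings are visual, 0–100, where 100 means complete control and 0 no effect, taken roughly 10 days after treatment by comparison with untreated controls. Formulation: non-phytotoxic solvent mixture with surfactant.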
# corn (Zea mays) = test: Test A pre-/postemergence plant response
# How it was run: as §1
# [2] = tested on: giant foxtail (Setaria faberi); test: Test A pre-/postemergence plant response
# How it was run: as §1
# [3] = tested on: large crabgrass (Digitaria sanguinalis); test: Test A pre-/postemergence plant response
# How it was run: as §1
# [4] = tested on: morningglory (Ipomoea coccinea); test: Test A pre-/postemergence plant response
# How it was run: as §1
# [5] = tested on: pigweed (Amaranthus retroflexus); test: Test A pre-/postemergence plant response
# How it was run: as §1
# [6] = tested on: velvetleaf (Abutilon theophrasti); test: Test A pre-/postemergence plant response
# How it was run: as §1
# [7] = tested on: wheat (Triticum aestivum); test: Test A pre-/postemergence plant response
# How it was run: as §1
# [8] = tested on: canarygrass (Phalaris minor); test: Test B postemergence plant response; settings: for Canarygrass plant response rating: 8 g ai/ha, postemergence, 0-100 scale; for Plant response rating, Canarygrass: Postemergence
# How it was run: (§2)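 Postemergence spray on 1- to 4-leaf plants (2–18 cm); greenhouse 13–15 d; visual rating vs controls, 0 = no effect, 100 = complete control; dash = not tested.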
# [9] = tested on: chickweed (Stellaria media); test: Test B postemergence plant response; settings: for Chickweed plant response rating: 8 g ai/ha, postemergence, 0-100 scale; for Plant response rating, Chickweed: Postemergence
# How it was run: as §2
# [10] = tested on: windgrass (Apera spica-venti); test: Test B postemergence plant response; settings: for Windgrass plant response rating: 8 g ai/ha, postemergence, 0-100 scale; for Plant response rating, Windgrass: Postemergence
# How it was run: as §2
# [11] = tested on: winter barley (Hordeum vulgare); test: Test B postemergence plant response; settings: for Barley plant response rating: 8 g ai/ha, postemergence, 0-100 scale; for Plant response rating, Barley: Postemergence, scale 0 to 100, 0 no effect, 100 complete control
# How it was run: as §2
# [12] = Postemergence, 31 g ai/ha, 0 to 100 scale, 0 no effect, 100 complete control
# [13] = Postemergence, 125 g ai/ha, 0 to 100 scale, 0 no effect, 100 complete control
# [14] = Preemergence, 31 g ai/ha, 0 to 100 scale, 0 is no effect, 100 is complete control
# [15] = Preemergence, 125 g ai/ha, 0 to 100 scale (0 no effect, 100 complete control)
# [16] = 31 g ai/ha, scale 0 to 100, 0 no effect, 100 complete control
# [17] = 62 g ai/ha, scale 0 to 100, 0 no effect, 100 complete control
smiles,measurement,setting,value
Cc1cc(-c2ccc(Cl)cc2)nn1-c1c(OC(=O)CC(C)C)cnn(C)c1=O [Compound 37],"Plant response rating, Barnyardgrass",[1]; [12],90
same,"Plant response rating, Barnyardgrass",[1]; [13],100
same,"Plant response rating, Barnyardgrass",[1]; [14],90
same,"Plant response rating, Barnyardgrass",[1]; [15],100
same,"Plant response rating, Corn",corn (Zea mays); [12],60
same,"Plant response rating, Corn",corn (Zea mays); [13],100
same,"Plant response rating, Corn",corn (Zea mays); [14],30
same,"Plant response rating, Corn",corn (Zea mays); [15],90
same,"Plant response rating, Foxtail, Giant",[2]; [12],80
same,"Plant response rating, Foxtail, Giant",[2]; [13],100
same,"Plant response rating, Foxtail, Giant",[2]; [14],100
same,"Plant response rating, Foxtail, Giant",[2]; [15],100
same,"Plant response rating, Crabgrass, Large",[3]; [12],50
same,"Plant response rating, Crabgrass, Large",[3]; [13],90
same,"Plant response rating, Crabgrass, Large",[3]; [14],80
same,"Plant response rating, Crabgrass, Large",[3]; [15],100
same,"Plant response rating, Morningglory",[4]; [12],0
same,"Plant response rating, Morningglory",[4]; [13],0
same,"Plant response rating, Morningglory",[4]; [14],0
same,"Plant response rating, Morningglory",[4]; [15],0
same,"Plant response rating, Pigweed",[5]; [12],0
same,"Plant response rating, Pigweed",[5]; [13],0
same,"Plant response rating, Pigweed",[5]; [14],0
same,"Plant response rating, Pigweed",[5]; [15],0
same,"Plant response rating, Velvetleaf",[6]; [12],0
same,"Plant response rating, Velvetleaf",[6]; [13],0
same,"Plant response rating, Velvetleaf",[6]; [14],0
same,"Plant response rating, Velvetleaf",[6]; [15],0
same,"Plant response rating, Wheat",[7]; [12],20
same,"Plant response rating, Wheat",[7]; [13],70
same,"Plant response rating, Wheat",[7]; [14],30
same,"Plant response rating, Wheat",[7]; [15],90
same,Canarygrass plant response rating,[8],0
same,"Plant response rating, Canarygrass","[8]; 16 g ai/ha, scale 0 to 100",10
same,"Plant response rating, Canarygrass",[8]; [16],10
same,"Plant response rating, Canarygrass",[8]; [17],40
same,Chickweed plant response rating,[9],0
same,"Plant response rating, Chickweed","[9]; 16 g ai/ha, scale 0 to 100",0
same,"Plant response rating, Chickweed",[9]; [16],0
same,"Plant response rating, Chickweed",[9]; [17],0
same,Windgrass plant response rating,[10],10
same,"Plant response rating, Windgrass","[10]; 16 g ai/ha, scale 0 to 100",60
same,"Plant response rating, Windgrass",[10]; [17],85
same,Barley plant response rating,[11],0
same,"Plant response rating, Barley",[11]; 16 g ai/ha,0
same,"Plant response rating, Barley",[11]; 31 g ai/ha,5
same,"Plant response rating, Barley",[11]; 62 g ai/ha,15
Cc1cc(-c2ccc(Cl)cc2)nn1-c1c(OC(=O)c2ccccc2Cl)cnn(C)c1=O [Compound 38],"Plant response rating, Barnyardgrass",[1]; [12],40
same,"Plant response rating, Barnyardgrass",[1]; [13],100
same,"Plant response rating, Barnyardgrass",[1]; [14],90
same,"Plant response rating, Barnyardgrass",[1]; [15],100
same,"Plant response rating, Corn",corn (Zea mays); [12],20
same,"Plant response rating, Corn",corn (Zea mays); [13],90
same,"Plant response rating, Corn",corn (Zea mays); [14],0
same,"Plant response rating, Corn",corn (Zea mays); [15],70
same,"Plant response rating, Foxtail, Giant",[2]; [12],80
same,"Plant response rating, Foxtail, Giant",[2]; [13],90
same,"Plant response rating, Foxtail, Giant",[2]; [14],90
same,"Plant response rating, Foxtail, Giant",[2]; [15],100
same,"Plant response rating, Crabgrass, Large",[3]; [12],40
same,"Plant response rating, Crabgrass, Large",[3]; [13],100
same,"Plant response rating, Crabgrass, Large",[3]; [14],90
same,"Plant response rating, Crabgrass, Large",[3]; [15],100
same,"Plant response rating, Morningglory",[4]; [12],0
same,"Plant response rating, Morningglory",[4]; [13],0
same,"Plant response rating, Morningglory",[4]; [14],0
same,"Plant response rating, Morningglory",[4]; [15],0
same,"Plant response rating, Pigweed",[5]; [12],0
same,"Plant response rating, Pigweed",[5]; [13],0
same,"Plant response rating, Pigweed",[5]; [14],0
same,"Plant response rating, Pigweed",[5]; [15],0
same,"Plant response rating, Velvetleaf",[6]; [12],0
same,"Plant response rating, Velvetleaf",[6]; [13],0
same,"Plant response rating, Velvetleaf",[6]; [14],0
same,"Plant response rating, Velvetleaf",[6]; [15],0
same,"Plant response rating, Wheat",[7]; [12],0
same,"Plant response rating, Wheat",[7]; [13],60
same,"Plant response rating, Wheat",[7]; [14],20
same,"Plant response rating, Wheat",[7]; [15],60
same,Canarygrass plant response rating,[8],0
same,"Plant response rating, Canarygrass","[8]; 16 g ai/ha, scale 0 to 100",0
same,"Plant response rating, Canarygrass",[8]; [16],10
same,"Plant response rating, Canarygrass",[8]; [17],30
same,Chickweed plant response rating,[9],0
same,"Plant response rating, Chickweed","[9]; 16 g ai/ha, scale 0 to 100",0
same,"Plant response rating, Chickweed",[9]; [16],0
same,"Plant response rating, Chickweed",[9]; [17],0
same,Windgrass plant response rating,[10],0
same,"Plant response rating, Windgrass","[10]; 16 g ai/ha, scale 0 to 100",0
same,"Plant response rating, Windgrass",[10]; [17],80
same,Barley plant response rating,[11],0
same,"Plant response rating, Barley",[11]; 16 g ai/ha,0
same,"Plant response rating, Barley",[11]; 31 g ai/ha,10
same,"Plant response rating, Barley",[11]; 62 g ai/ha,10

# Source: patent publication US20100267561A1, “HERBICIDAL PYRIDAZINONE DERIVATIVES” (priority 2007, published 2010)
